Data reported in patent US7629332B2, “Nitrophenyl mustard and nitrophenylaziridine alcohols and their corresponding phosphates and their use as targeted cytotoxic agents” (Auckland Uniservices Limited, priority 2003, dated 2009).
“Also recorded” adds a separate entry of the source.

Assays:
[1] = system: SiHa human tumour xenografts; experiment: SiHa xenograft excision / clonogenic assay, with or without 15 Gy radiation; assay type: in vivo; conditions: for Log kill, cmpd only, Mean ± sem: 75% of MTD, single i.p. dose, no radiation, relative to vehicle controls, excision 18 h; for Activity against hypoxic cells: 20% of respective MTDs, after radiation
Rif-1 tumour = experiment: In vivo excision assay with the Rif-1 tumour (15 Gy)
Method: FIG. 1b depicts an excision assay method: 300-500 mg Rif-1 xenograft→ 15 Gy→ Single prodrug dose @ MTD→ 18 hr→ excision→ disaggregate→ plate 10^2-10^5 cells→ 12 days→ colonies counted;
This employs an in vivo excision assay with the Rif-1 tumour, where the oxic tumour cells are sterilised using 15 Gy of radiation, and the cytotoxicity of an agent against the remaining hypoxic cells can be quantitated. […] Thus Ib-7P acts as a hypoxia-selective cytotoxin in vivo.

[2] = system: WiDr human colon carcinoma xenografts (90% NTR-ve and 10% NTR+ve); experiment: WiDr in vivo growth delay assay, mixed WiDr WT / WiDr NTR xenografts; conditions: single dose at MTD (750 μmol/kg), xenografts treated at 300 mm3
Excerpt: FIG. 2a depicts in vivo activity of compound IIb-7 and its corresponding phosphate pre-prodrug, Ib-7P, against human colon carcinoma xenografts grown by inoculating mixtures of 90% NTR−ve and 10% NTR+ve Wi Dr cells;
FIG. 2b are plots of % animals survival versus time (days), in which open circles denote wild-type WiDR human colon carcinoma xenografts, and filled circles denote tumours containing WiDr cells transfected with the E. coli NTR gene;
In the WiDr in vivo growth delay assay, xenografts containing mixtures of WiDr^WT and WiDr^NTR cells are grown to 300 mm^3 and treated with a single dose of prodrug at its MTD. Tumour growth is monitored over time and animals are euthanased when mean tumour volume >1600 mm^3. Data is presented as time to death.

in vivo = conditions: mouse
WiDr (NTR+ve) = experiment: Cell proliferation (sulphorhodamine B) IC50, NTR-transfected WiDr human colon cells; assay type: cell-based; conditions: for WiDr WT:NTR IC50 Ratio: 4 h, sensitivity ratio for NTR expression; for IC50: WiDr, 4 h drug exposure, growth 5 further days
A549 (P450R+ve) = experiment: Cell proliferation (sulphorhodamine B) IC50, P450R-transfected A549 human lung cells, anoxia vs 20% O2; assay type: cell-based; conditions: for A549 (P450R+ve) 20% O2/anoxia IC50 Ratio: 4 h, sensitivity ratio for hypoxia; for IC50: A549, 4 h drug exposure under 0% oxygen

SMILES | MTD (in vivo; CD-1 nude, ip) [µmol/kg] | WiDr WT:NTR IC50 Ratio (WiDr (NTR+ve)) | IC50 (WiDr (NTR+ve)) [µM] | A549 (P450R+ve) 20% O2/anoxia IC50 Ratio (A549 (P450R+ve)) | IC50 (A549 (P450R+ve)) [µM] | melting point [°C] | also measured
O=C(NCCOP(=O)(O)O)c1cc([N+](=O)[O-])cc([N+](=O)[O-])c1N(CCBr)CCBr [Ib-7P, 2-[[2-[Bis(2-Bromoethyl)Amino]-3,5-Dinitrobenzoyl]Amino]Ethyl Dihydrogen Phosphate] | 750 | – | – | – | – | – | Log kill, cmpd only, Mean ± sem [1]: 1.20 ± 0.07; Activity against hypoxic cells, Rif-1 excision assay (Rif-1 tumour; single dose at MTD after 15 Gy): exceed that of its parent alcohol (IIb-7); also recorded: more active against hypoxic cells than the reference hypoxic cytotoxin tirapazamine; Activity against oxic tumour cells, Rif-1 excision assay (Rif-1 tumour; single dose at MTD without radiation): significant; over-all survival [2]: 40%; time to first treatment failure [2]: 77 days; MTD (in vivo): 750 µmol/kg
O=C(NCCCO)c1cc([N+](=O)[O-])cc([N+](=O)[O-])c1N(CCCl)CCCl [IIb-3, 2-[Bis(2-Chloroethyl)Amino]-N-(3-Hydroxypropyl)-3,5-Dinitrobenzamide] | – | 59 | 13.6 | 9 | 30 | 89 to 91 | –
O=C(NCCCCCCO)c1cc([N+](=O)[O-])cc([N+](=O)[O-])c1N1CC1 [IIb-1, 2-(Aziridin-1-yl)-N-(6-Hydroxyhexyl)-3,5-Dinitrobenzamide] | – | 2 | 61 | <1.3 | 384 | 189 to 192 | –
O=C(NCCOP(=O)(O)O)c1cc([N+](=O)[O-])cc([N+](=O)[O-])c1N(CCI)CCI [Ib-14P, 2-[[2-[Bis(2-Iodoethyl)Amino]-3,5-Dinitrobenzoyl]Amino]Ethyl Dihydrogen Phosphate] | 562 | – | – | – | – | – | Log kill, cmpd only, Mean ± sem [1]: 0.92 ± 0.06
O=C(NCCO)c1cc([N+](=O)[O-])cc([N+](=O)[O-])c1N(CCBr)CCBr [IIb-7, 2-[Bis(2-Bromoethyl)Amino]-N-(2-Hydroxyethyl)-3,5-Dinitrobenzamide] | – | 61 | 0.3 | 56 | 0.8 | – | over-all survival [2]: 6%; time to first treatment failure [2]: 17 days; MTD (in vivo): 1000 µmol/kg
O=C(O)CCCc1ccc(N(CCCl)CCCl)cc1 [Chlorambucil, reference compound] | 237 | – | – | – | – | – | Activity against hypoxic cells [1]: lacked activity; Log kill, cmpd only, Mean ± sem [1]: 0.11 ± 0.04
O=C(NCCCOP(=O)(O)O)c1cc(N(CCCl)CCCl)c([N+](=O)[O-])cc1[N+](=O)[O-] | – | – | – | – | – | 195 to 200 | –
N[C@@H](Cc1ccc(N(CCCl)CCCl)cc1)C(=O)O [Melphalan, reference compound] | 42.2 | – | – | – | – | – | Activity against hypoxic cells [1]: lacked activity
O=C(NCCCCO)c1cc(N(CCBr)CCBr)c([N+](=O)[O-])cc1[N+](=O)[O-] [IIa-9, N-(4-Hydroxybutyl)-5-[Bis(2-Bromoethyl)Amino]-2,4-Dinitrobenzamide] | – | 58 | 6.4 | 9.4 | 22 | 123 to 124 | –
CC(Br)CN(CC(C)Br)c1c(C(=O)NCCOP(=O)(O)O)cc([N+](=O)[O-])cc1[N+](=O)[O-] (centres unmarked) | – | – | – | – | – | 157 to 161 | –
O=P1(N(CCCl)CCCl)NCCCO1 (centres unmarked) [Cyclophosphamide, reference compound] | 750 | – | – | – | – | – | Activity against hypoxic cells [1]: lacked activity
O=C(NCCCO)c1cc([N+](=O)[O-])cc([N+](=O)[O-])c1N(CCBr)CCBr [IIb-8, 2-[Bis(2-Bromoethyl)Amino]-N-(3-Hydroxypropyl)-3,5-Dinitrobenzamide] | – | 13 | 0.4 | 24 | 1.1 | 89 to 94 | –
O=C(NCCO)c1cc([N+](=O)[O-])cc([N+](=O)[O-])c1N(CCI)CCI [IIb-14, 2-[Bis(2-Iodoethyl)Amino]-N-(2-Hydroxyethyl)-3,5-Dinitrobenzamide] | – | 12 | 0.8 | 27 | 1 | 129 to 131 | –
CC(Br)CN(CC(C)Br)c1c(C(=O)NCCO)cc([N+](=O)[O-])cc1[N+](=O)[O-] (centres unmarked) [IIb-7a, 2-[Bis(2-Bromopropyl)Amino]-N-(2-Hydroxyethyl)-3,5-Dinitrobenzamide] | – | 27 | 0.5 | 5.3 | 1 | 127 to 130 | –
O=C(NCCO)c1cc([N+](=O)[O-])cc([N+](=O)[O-])c1N(CCCl)CCCl [IIb-2, 2-[Bis(2-Chloroethyl)Amino]-N-(2-Hydroxyethyl)-3,5-Dinitrobenzamide] | – | 47 | 11.8 | 20 | 18 | 109 to 111 | –
CS(=O)(=O)c1cc([N+](=O)[O-])c(C(=O)NCCO)cc1N(CCBr)CCBr [IIa-7s, 5-[Bis(2-Bromoethyl)Amino]-N-(2-hydroxyethyl)-4-(Methylsulfonyl)-2-Nitrobenzamide] | – | 35 | 9.3 | 109 | 2.1 | 126 to 127 | –
